Data: patent publication US20230416239A1, “COMPOUNDS AND METHODS FOR TREATING A CYTOKINE-MEDIATED DISEASE” (CONSERVATOIRE NATIONAL DES ARTS ET MÉTIERS, priority 2020, published 2023)

Experiments:
IL-13 = IL-13 (Homo sapiens, UniProt P35225); assay: Immunoassay binding test, IL-13; conditions: for IC50: IL-13 400 ng/ml, receptor 100 ng/ml, read-out: BINDING IL13 IC50
Outline: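 Receptor-coated plates; compounds (100 to 0.78 μM final) preincubated 2 h at 37° C with fixed cytokine, then bound to receptor overnight at 4° C. Bound cytokine detected with biotinylated anti-cytokine antibody and avidin-HRP, OD 450 nm.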

TNFa/TNFRI interaction = TNFa/TNFRI interaction (Homo sapiens, UniProt P01375); assay: TNFa/TNFRI interaction displacement test; assay type: binding; conditions: for Displacement EC50 TNFa in presence of compound: Difference: Compound EC50 minus SPD304 EC50; for Displacement (%): compounds at 50 μM, human TNFRI 100 ng/ml;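 on Displacement EC50 TNFa in presence of compound: Difference: SPD304 reference at 20 µM final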
Outline: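 Plates coated overnight at 4° C with human TNFRI (100 ng/ml) and blocked with 2% BSA, then test mixtures were incubated overnight at 4° C. Bound cytokine detected with biotinylated anti-cytokine antibody (2 h, 37° C) and avidin-HRP, read as OD at 450 nm.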

TNFα = TNFα (Homo sapiens, UniProt P01375); assay: Immunoassay binding test, TNFa; conditions: compounds 100 to 0.78 μM; TNFα 10 ng/ml, receptor 100 ng/ml; read-out: BINDING TNF IC50
Outline: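 ELISA-type binding test: receptor-coated plates blocked with 2% BSA, then cytokine (six-point dilution series) preincubated 2 h at 37 °C and bound overnight at 4 °C. Detection used biotinylated anti-cytokine antibody and avidin-HRP, read as OD at 450 nm. For IL-6, IL-6Ra was present at 200 ng/ml final.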

IL-6 = IL-6 (Homo sapiens, UniProt P05231); assay: Immunoassay binding test, IL-6 (gp130 receptor, IL-6Ra present); conditions: IL-6Ra 200 ng/ml
Outline: (§1)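 Detection used OD at 450 nm after biotinylated anti-cytokine antibody and avidin-HRP were applied to receptor-coated wells. Those wells had received, overnight at 4 °C, cytokine preincubated 2 h at 37 °C with compound at final 100 to 0.78 μM. IL-6 mixtures further contained IL-6Ra at 200 ng/ml final.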

IL-4 = target: T1, IL-4 (Homo sapiens, UniProt P05112); assay: Immunoassay binding test, IL-4; conditions: for IC50: IL-4 400 ng/ml, receptor 100 ng/ml, read-out: BINDING IL4 IC50
T1 sequence (P05112 25-153): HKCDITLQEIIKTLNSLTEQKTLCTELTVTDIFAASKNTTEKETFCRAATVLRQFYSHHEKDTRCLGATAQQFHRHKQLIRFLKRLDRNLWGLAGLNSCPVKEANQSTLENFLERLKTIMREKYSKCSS
Outline: as §1

[1] = system: hepatic shock induced by LPS/D-Galactosamine; assay: LPS/D-Galactosamine induced lethal shock; assay type: in vivo, Balb/C mice; conditions: 5 mg force-fed in DMSO eight hours before LPS/D-Galactosamine i.p.; 48 hours
Protocol: 7 week-old Balb/C mice (n=10 per group) were force-fed with 100 μl of a solution of DMSO containing 5 mg of compounds 33, 65 or 71 eight hours before receiving an intraperitoneal injection of 200 μl of PBS containing 0.2 μg of LPS and 20 mg of D-Galactosamine. A negative control group (vehicle) was force-fed with 100 μl of a solution of DMSO alone eight hours before to be injected with 200 μl of LPS/D-Galactosamine solution. Mice survival was monitored for 48 hours after the injection of LPS/D-Galactosamine.

Sequence of TNFα (P01375 77-233 limits assumed, species assumed): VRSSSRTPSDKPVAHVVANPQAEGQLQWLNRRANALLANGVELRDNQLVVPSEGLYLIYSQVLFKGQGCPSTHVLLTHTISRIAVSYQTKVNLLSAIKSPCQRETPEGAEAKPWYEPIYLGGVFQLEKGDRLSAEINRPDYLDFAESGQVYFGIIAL
Sequence of TNFa/TNFRI interaction (P01375 77-233 limits assumed): as the sequence (P01375 77-233 limits assumed, species assumed) above
Sequence of IL-6 (P05231 30-212, species assumed): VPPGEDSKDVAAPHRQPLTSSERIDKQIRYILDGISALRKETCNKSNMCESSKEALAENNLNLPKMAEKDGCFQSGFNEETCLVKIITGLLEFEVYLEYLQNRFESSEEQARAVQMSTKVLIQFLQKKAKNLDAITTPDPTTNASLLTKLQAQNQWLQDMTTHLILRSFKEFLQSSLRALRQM
Sequence of IL-13 (P35225 25-146, species assumed): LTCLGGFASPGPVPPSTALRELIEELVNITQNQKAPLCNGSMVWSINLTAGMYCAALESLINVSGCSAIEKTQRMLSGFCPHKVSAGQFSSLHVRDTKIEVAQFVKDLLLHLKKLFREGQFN

| SMILES | BINDING IL13 % Neutra at 100 μM (IL-13) | IC50 (IL-13) | Displacement EC50 TNFa in presence of compound: Difference (TNFa/TNFRI interaction) | Displacement (%) (TNFa/TNFRI interaction) | IC50 (TNFα) | BINDING IL6 % Neutra at 100 μM (IL-6) | BINDING IL4 % Neutra at 100 μM (IL-4) | IC50 (IL-4) | survival [1] |
| --- | --- | --- | --- | --- | --- | --- | --- | --- | --- |
| O=S(=O)(c1ccccc1)n1cc(CN(CCCCCNC2CCCCC2)Cc2ccncc2)c2ccccc21 [Compound 33] | 95.4% | 10.5 µM | 11.6 ng/mL | 273% | 4.6 µM | −11.8% | 96% | 4.1 µM | 100% |
| CN(CCOCCN(Cc1cccnc1F)Cc1cn(S(=O)(=O)c2ccccc2)c2ccccc12)C1CCCCC1 [Compound 65, N-(2-(2-(((2-fluoropyridin-3-yl)methyl)((1-(phenylsulfonyl)-1H-indol-3-yl)methyl)amino)ethoxy)ethyl)-N-methylcyclohexanamine] | 79.3% | > 50 µM |  | 224% | 5.9 µM | 0% | 86.5% | 5.5 µM | 60% |
| O=S(=O)(c1ccccc1)n1cc(CN(CCCCNC2CCCCC2)Cc2ccncc2)c2ccccc21 [Compound 16] | 88.2% | > 50 µM | 4.7 ng/mL | 165% | 5.4 µM | 15.7% | 99.5% | 4.8 µM |  |
| CCN(CCOCCN(Cc1cccnc1F)Cc1cn(S(=O)(=O)c2ccccc2)c2ccccc12)C1CCCCC1 [Compound 100] | 83.0% | > 50 µM |  | 128% | 8 µM | 0% | 87.7% | 8.6 µM |  |
| CCCCN(CCOCCN(Cc1cccnc1F)Cc1cn(S(=O)(=O)c2ccccc2)c2ccccc12)C1CCCCC1 [Compound 102] | 39.2% | > 25 µM |  | 138% | 7.2 µM | 0% | 83.2% | 6.3 µM |  |
| O=S(=O)(c1ccccc1)n1cc(CN(Cc2ccnc(F)c2)CC2CCCN(C3CCCCC3)C2)c2ccccc21 (stereo not drawn) [Compound 19] | 98.1% | > 50 µM | 9.9 ng/mL | 169% | 10.9 µM | 12.6% | 99% | 6.3 µM |  |
| CN(CCCN(Cc1cccnc1)Cc1cn(-c2cccc(C(F)(F)F)c2)c2ccccc12)C1CCCCC1 [Compound 13] | 85.2% | > 50 µM | 6.4 ng/mL | 186% | 4.3 µM | 8.9% | 97.9% | 5 µM |  |
| O=S(=O)(c1ccccc1)n1cc(CN(CCCNC2CCCCC2)Cc2cccnc2)c2ccccc21 [Compound 7] | 86.2% | > 50 µM | 7.8 ng/mL | 146% | 9.4 µM | 3.3% | 97.3% | 8.5 µM |  |
| CCCCN(CCCCN(Cc1cccnc1F)Cc1cn(S(=O)(=O)c2ccccc2)c2ccccc12)C1CCCCC1 [Compound 68, N′-butyl-N′-cyclohexyl-N^4-((2-fluoropyridin-3-yl)methy)-N^4-((1-(phenylsulfonyl)-1H-indol-3-yl)methyl)butane-1,4-diamine] | 81.6% | 17.3 µM |  | 219% | 10 µM | 0% | 86.0% | 4.2 µM |  |
| CN(CCCCCN(Cc1cccnc1)Cc1cn(-c2cccc(C(F)(F)F)c2)c2ccccc12)C1CCCCC1 [Compound 40] | 94.2% | 11.2 µM | 4.2 ng/mL | 157% | 19.9 µM | 16.4% | 96.4% | 2.7 µM |  |
| O=S(=O)(c1ccccc1)n1cc(CN(CCCCNCc2cccnc2F)Cc2cn(S(=O)(=O)c3ccccc3)c3ccccc23)c2ccccc21 [Compound 88] | 8% |  |  | 5% | > 50 µM | 9% | 69.0% | 5.3 µM |  |
| CCN(CCOCCN(Cc1cccnc1F)Cc1cn(S(=O)(=O)c2ccccc2)c2ccccc12)C1CCCCC1 [Compound 93, N-ethyl-N-(2-(2-(((2-fluoropyridin-3-yl)methyl)((1-(phenylsulfonyl)-1H-indol-3-yl)methyl)amino)ethoxy)ethyl)cyclohexanamine] | 91.3% | 7.8 µM |  | 160% | 11.2 µM | 0% | 89.8% | 2.8 µM |  |
| CN(CCN(Cc1cccnc1)Cc1cn(-c2cccc(C(F)(F)F)c2)c2ccccc12)C1CCCCC1 [Compound 32] | 76.3% | > 50 µM |  | 125% | 15.9 µM | 15.5% | 97.7% | 3.9 µM |  |
| NCCCCN(Cc1cccnc1F)Cc1cn(S(=O)(=O)c2ccccc2)c2ccccc12 [Compound 63] | 55.4% | > 50 µM |  | 88% | 26.5 µM | 0% | 85.9% | 16 µM |  |
| O=S(=O)(c1ccccc1)n1cc(CN(CCCCNC2CCCCC2)Cc2cn(S(=O)(=O)c3ccccc3)c3ccccc23)c2ccccc21 [Compound 89] | 94.7% | 2.6 µM |  | 63% | 15 µM | 0% | 95.6% | 2 µM |  |
| CN(C)S(=O)(=O)NCCCCN(Cc1cccnc1F)Cc1cn(S(=O)(=O)c2ccccc2)c2ccccc12 [Compound 78] | 0% |  |  | 11% | > 50 µM | 0% | 33.5% | > 50 µM |  |
| O=S(=O)(c1ccccc1)n1cc(CN(CCCCNC2CCCC2)Cc2cccnc2F)c2ccccc21 [Compound 71, N′-cyclopentyl-N^4-((2-fluoropyridin-3-yl)methyl)-N^4-((1-(phenylsulfonyl)-1H-indol-3-yl)methyl)butane-1,4-diamine] | 89.7% | > 50 µM |  | 199% | 9.8 µM | 2% | 92.4% | 6 µM | 60% |
